# Molecular target: human RIP1 kinase domain (2-375) (Homo sapiens (Human), UniProt Q13546)
# Assay: RIP1 kinase inhibition biochemical assay (Transcreener ADP, fluorescence polarization)
# Conditions: apparent Ki (Kiapp, Morrison tight-binding fit); 50 nM enzyme, 50 uM ATP, 2 hours incubation
# Experimental: RIP1 Kinase Inhibition Assays (Biochemical Assay):
# The compounds of the present invention were tested for their capacity to inhibit RIP IK activity as described below.
# Enzyme assay: The ability of the receptor interacting protein kinase (RIPK1) to catalyze the hydrolysis of adenosine-5′-triphosphate (ATP) is monitored using the Transcreener ADP (adenosine-5′-diphosphate) assay (BellBrook Labs). Purified human RIP1 kinase domain (2-375) (50 nM) derived from a baculovirus-infected insect cell expression system is incubated with test compounds for 2 hours in 50 mM Hepes buffer (pH 7.5) containing 30 mM MgCl2, 1 mM dithiothreitol, 50 uM ATP, 0.002% Brij-35, and 0.5% dimethyl sulfoxide (DMSO). Reactions are quenched by the addition of IX Bell Brooks Stop buffer B (20 mM Hepes (ph7.5), 40 mM ethylenediaminetetraacetic acid and 0.02% Brij-35) containing an additional 12 mM EDTA and 55 ug/mL ADP2 antibody and 4 nM ADP-AlexaFluor® 633 tracer. The tracer bound to the antibody is displaced by the ADP generated during the RIP IK reaction, which causes a decrease in fluorescence polarization that is measured by laser excitation at 633 nm with a FP microplate reader M1000. Fractional activity was plotted against test article concentration. […]
# Chain of human RIP1 kinase domain (2-375) (Q13546 2-375): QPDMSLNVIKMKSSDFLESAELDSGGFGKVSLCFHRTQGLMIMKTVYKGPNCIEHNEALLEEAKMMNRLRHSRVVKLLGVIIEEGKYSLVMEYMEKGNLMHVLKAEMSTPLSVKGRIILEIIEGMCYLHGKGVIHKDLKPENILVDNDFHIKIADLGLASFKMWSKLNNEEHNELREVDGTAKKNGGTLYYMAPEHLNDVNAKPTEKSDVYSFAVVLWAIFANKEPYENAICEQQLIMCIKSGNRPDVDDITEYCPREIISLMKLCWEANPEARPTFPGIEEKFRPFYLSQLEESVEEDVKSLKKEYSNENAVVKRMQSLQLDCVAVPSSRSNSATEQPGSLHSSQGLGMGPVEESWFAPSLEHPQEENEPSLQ
row,Ki [nM],SMILES
1,233,"O=C(c1nc2n(n1)CCC2c1ccccc1F)N1CC(F)(F)C1 (racemic) [Example 14, (3,3-difluoroazetidin-1-yl)-[7-(2-fluorophenyl)-6,7-dihydro-5H-pyrrolo[1,2-b][1,2,4]triazol-2-yl]methanone]"
2,4,"O=C(c1nc2n(n1)[C@H](c1ccccc1)C[C@@H]2F)N1CC(F)(F)C1 (single isomer, unassigned) [Example 36]"
